pIC50: −log10 of the molar value.

One assay concerns the target T1, Recombinant autotaxin (Homo sapiens, UniProt Q13822).
T1 construct: made in house; host or cells: Hi5 insect cells (baculovirus)
Nature of the assay: Autotaxin assay (Amplex Red, LPC substrate). The settings on record: % of control at 1E−05 (compound concentration); uninhibited control = 100%. Format: biochemical. Put shortly: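 Recombinant autotaxin (Hi5 baculovirus, 16 ng) pre-incubated with compound 30 min at 22° C, then reacted with 75 μM egg LPC for 90 min at 37° C. Choline released is coupled to H2O2 and Amplex Red fluorescence (ex 485/em 612 nm). IC50 from ten 1:3 dilutions from 30 μM, duplicates, normalised to 500 μM C14 LPA.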
On to `CS(=O)(=O)c1ccc(CCC(=O)N2CCC(N3CCN(C(=O)c4ccc5[nH]nnc5c4)CC3)CC2)cc1` [Compound 88, 1-{4-[4-(1H-Benzotriazole-5-carbonyl)-piperazin-1-yl]-piperidin-1-yl}-3-(4-methanesulfonyl-phenyl)-propan-1-one], for which the “% CTRL (1E−05)” value is reported as 89%.

Take `O=C(c1cc(Cl)c(F)c(Cl)c1)N1CCC(N2CCN(C(=O)c3ccc4[nH]nnc4c3)CC2)CC1` [Compound 91, (1H-Benzotriazol-5-yl)-{4-[1-(3,5-dichloro-4-fluoro-benzoyl)-piperidin-4-yl]-piperazin-1-yl}-methanone]: the “% CTRL (1E−05)” value is recorded as 66%.

For `N#Cc1ccc(CCC(=O)N2CCC(N3CCN(C(=O)c4ccc5[nH]nnc5c4)CC3)CC2)cc1` [Compound 94, 4-(3-{4-[4-(1H-Benzotriazole-5-carbonyl)-piperazin-1-yl]-piperidin-1-yl}-3-oxo-propyl)-benzonitrile], the “% CTRL (1E−05)” value worked out at 77%.

Turning to `O=C(Cc1ccc(C(F)(F)F)c(F)c1)N1CCN(C2CCN(C(=O)c3ccc4[nH]nnc4c3)CC2)CC1` [Compound 102, 1-{4-[1-(1H-Benzotriazole-5-carbonyl)-piperidin-4-yl]-piperazin-1-yl}-2-(3-fluoro-4-trifluoromethyl-phenyl)-ethanone], the “% CTRL (1E−05)” value amounted to 24%.

The assay is the same for the next values; noted with them: recombinant autotaxin, LPC substrate, Amplex Red detection; values given as upper bounds.
One may read the pIC50 as the IC50 on a negative log10 scale, so that one unit is a factor of ten. Consider `O=C(OCc1ccc(F)c(Cl)c1)N1CCC(N2CCN(C(=O)c3ccc4[nH]nnc4c3)CC2)CC1` [Compound 78, 4-[4-(1H-Benzotriazole-5-carbonyl)-piperazin-1-yl]-piperidine-1-carboxylic acid 3-chloro-4-fluoro-benzyl ester], for which the pIC50 is greater than 6.00.

Turning to `O=C(OCc1cc(F)c(F)c(F)c1)N1CCC(N2CCN(C(=O)c3ccc4[nH]nnc4c3)CC2)CC1` [Compound 79, 4-[4-(1H-Benzotriazole-5-carbonyl)-piperazin-1-yl]-piperidine-1-carboxylic acid 3,4,5-trifluoro-benzyl ester], the pIC50 is greater than 6.00.

For `O=C(OCc1ccc(Br)cc1)N1CCC(N2CCN(C(=O)c3ccc4[nH]nnc4c3)CC2)CC1` [Compound 80, 4-[4-(1H-Benzotriazole-5-carbonyl)-piperazin-1-yl]-piperidine-1-carboxylic acid 4-bromo-benzyl ester], the pIC50 is greater than 6.00.

Regarding `O=C(CCc1ccc(Cl)cc1Cl)N1CCC(N2CCN(C(=O)c3ccc4[nH]nnc4c3)CC2)CC1` [Compound 82, 1-{4-[4-(1H-Benzotriazole-5-carbonyl)-piperazin-1-yl]-piperidin-1-yl}-3-(2,4-dichloro-phenyl)-propan-1-one], the negative logarithm of the IC50 (pIC50) was greater than 5.00.

For `O=C(/C=C/c1ccc(Br)cc1F)N1CCC(N2CCN(C(=O)c3ccc4[nH]nnc4c3)CC2)CC1` [Compound 83, (E)-1-{4-[4-(1H-Benzotriazole-5-carbonyl)-piperazin-1-yl]-piperidin-1-yl}-3-(4-bromo-2-fluoro-phenyl)-propenone], the negative logarithm of the IC50 (pIC50) was greater than 6.00.

As to `CC(C)c1ccc(CCC(=O)N2CCC(N3CCN(C(=O)c4ccc5[nH]nnc5c4)CC3)CC2)cc1` [Compound 84, 1-{4-[4-(1H-Benzotriazole-5-carbonyl)-piperazin-1-yl]-piperidin-1-yl}-3-(4-isopropyl-phenyl)-propan-1-one], the pIC50 is greater than 6.00.

For the molecule `O=C(OCc1ccc(Cl)c(Cl)c1)N1CCC(N2CCN(C(=O)c3ccc4[nH]nnc4c3)CC2)CC1` [Compound 85, 4-[4-(1H-Benzotriazole-5-carbonyl)-piperazin-1-yl]-piperidine-1-carboxylic acid 3,4-dichloro-benzyl ester], the negative-log IC50 (pIC50) is greater than 6.00.

Consider `O=C(OCc1ccc(SC(F)(F)F)cc1)N1CCC(N2CCN(C(=O)c3ccc4[nH]nnc4c3)CC2)CC1` [Compound 86, 4-[4-(1H-Benzotriazole-5-carbonyl)-piperazin-1-yl]-piperidine-1-carboxylic acid 4-trifluoromethylsulfanyl-benzyl ester], for which the negative logarithm of the IC50 (pIC50) was greater than 6.00.

Regarding `CC(C)c1ccc(COC(=O)N2CCC(N3CCN(C(=O)c4ccc5[nH]nnc5c4)CC3)CC2)cc1` [Compound 87, 4-[4-(1H-Benzotriazole-5-carbonyl)-piperazin-1-yl]-piperidine-1-carboxylic acid 4-isopropyl-benzyl ester], the pIC50 is greater than 6.00.

Regarding `N[C@@H](Cc1c[nH]cn1)C(=O)N1CCN(C2CCN(C(=O)OCc3ccc(C(F)(F)F)cc3)CC2)CC1` [Compound 89, 4-{4-[(S)-2-Amino-3-(1H-imidazol-4-yl)-propionyl]-piperazin-1-yl}-piperidine-1-carboxylic acid 4-trifluoromethyl-benzyl ester], the pIC50 is greater than 4.52.

`O=C(/C=C/c1cc(Cl)cc(Cl)c1)N1CCC(N2CCN(C(=O)c3ccc4[nH]nnc4c3)CC2)CC1` [Compound 90, (E)-1-{4-[4-(1H-Benzotriazole-5-carbonyl)-piperazin-1-yl]-piperidin-1-yl}-3-(3,5-dichloro-phenyl)-propenone]: the negative logarithm of the IC50 (pIC50) is greater than 6.00.

As for `O=C(OCc1ccc(C(F)(F)F)c(Cl)c1)N1CCC(N2CCN(C(=O)c3ccc4[nH]nnc4c3)CC2)CC1` [Compound 92, 4-[4-(1H-Benzotriazole-5-carbonyl)-piperazin-1-yl]-piperidine-1-carboxylic acid 3-chloro-4-trifluoromethyl-benzyl ester], the pIC50 is greater than 6.00.

For the molecule `O=C(OCc1cc(Cl)c(F)c(Cl)c1)N1CCC(N2CCN(C(=O)c3ccc4[nH]nnc4c3)CC2)CC1` [Compound 93, 4-[4-(1H-Benzotriazole-5-carbonyl)-piperazin-1-yl]-piperidine-1-carboxylic acid 3,5-dichloro-4-fluoro-benzyl ester], the negative-log IC50 (pIC50) is greater than 6.00.

Take `O=C(OCc1cc(Cl)cc(C(F)(F)F)c1)N1CCN(C2CCN(C(=O)c3ccc4[nH]nnc4c3)CC2)CC1` [Compound 95, 4-[1-(1H-Benzotriazole-5-carbonyl)-piperidin-4-yl]-piperazine-1-carboxylic acid 3-chloro-5-trifluoromethyl-benzyl ester]: the pIC50 is greater than 6.00.

In the case of `O=C(OCc1ccc(C(F)(F)F)c(Cl)c1)N1CCN(C2CCN(C(=O)c3ccc4[nH]nnc4c3)CC2)CC1` [Compound 96, 4-[1-(1H-Benzotriazole-5-carbonyl)-piperidin-4-yl]-piperazine-1-carboxylic acid 3-chloro-4-trifluoromethyl-benzyl ester], the pIC50 is greater than 6.00.

`O=C(OCc1cc(Cl)c(F)c(Cl)c1)N1CCN(C2CCN(C(=O)c3ccc4[nH]nnc4c3)CC2)CC1` [Compound 97, 4-[1-(1H-Benzotriazole-5-carbonyl)-piperidin-4-yl]-piperazine-1-carboxylic acid 3,5-dichloro-4-fluoro-benzyl ester]: the negative logarithm of the IC50 (pIC50) is greater than 6.00.

Consider `Cc1c(Br)cc(COC(=O)N2CCN(C3CCN(C(=O)c4ccc5[nH]nnc5c4)CC3)CC2)cc1Br` [Compound 98, 4-[1-(1H-Benzotriazole-5-carbonyl)-piperidin-4-yl]-piperazine-1-carboxylic acid 3,5-dibromo-4-methyl-benzyl ester], for which the negative-log IC50 (pIC50) was greater than 6.00.

Take `O=C(OCc1cc(Cl)cc(C(F)(F)F)c1F)N1CCN(C2CCN(C(=O)c3ccc4[nH]nnc4c3)CC2)CC1` [Compound 99, 4-[1-(1H-Benzotriazole-5-carbonyl)-piperidin-4-yl]-piperazine-1-carboxylic acid 5-chloro-2-fluoro-3-trifluoromethyl-benzyl ester]: the pIC50 is greater than 6.00.

For the molecule `O=C(OCc1ccc(F)c(C(F)(F)F)c1)N1CCN(C2CCN(C(=O)c3ccc4[nH]nnc4c3)CC2)CC1` [Compound 100, 4-[1-(1H-Benzotriazole-5-carbonyl)-piperidin-4-yl]-piperazine-1-carboxylic acid 4-fluoro-3-trifluoromethyl-benzyl ester], the pIC50 was greater than 6.00.

As for `O=C(OCc1ccc(OC(F)(F)F)c(Cl)c1)N1CCN(C2CCN(C(=O)c3ccc4[nH]nnc4c3)CC2)CC1` [Compound 101, 4-[1-(1H-Benzotriazole-5-carbonyl)-piperidin-4-yl]-piperazine-1-carboxylic acid 3-chloro-4-trifluoromethoxy-benzyl ester], the pIC50 was greater than 6.00.

Turning to `O=C(Cc1ccc(C(F)(F)F)cc1F)N1CCN(C2CCN(C(=O)c3ccc4[nH]nnc4c3)CC2)CC1` [Compound 103, 1-{4-[1-(1H-Benzotriazole-5-carbonyl)-piperidin-4-yl]-piperazin-1-yl}-2-(2-fluoro-4-trifluoromethyl-phenyl)-ethanone], the pIC50 is greater than 4.52.

With `O=C(CCc1cc(Cl)c(F)c(Cl)c1)N1CCN(C2CCN(C(=O)c3ccc4[nH]nnc4c3)CC2)CC1` [Compound 104, 1-{4-[1-(1H-Benzotriazole-5-carbonyl)-piperidin-4-yl]-piperazin-1-yl}-3-(3,5-dichloro-4-fluoro-phenyl)-propan-1-one], the pIC50 was greater than 5.00.

Consider `O=C(CCc1ccc(C(F)(F)F)c(F)c1)N1CCN(C2CCN(C(=O)c3ccc4[nH]nnc4c3)CC2)CC1` [Compound 105, 1-{4-[1-(1H-Benzotriazole-5-carbonyl)-piperidin-4-yl]-piperazin-1-yl}-3-(3-fluoro-4-trifluoromethyl-phenyl)-propan-1-one], for which the pIC50 was greater than 6.00.

As for `Cc1cc(CCC(=O)N2CCN(C3CCN(C(=O)c4ccc5[nH]nnc5c4)CC3)CC2)cc(C)c1F` [Compound 106, 1-{4-[1-(1H-Benzotriazole-5-carbonyl)-piperidin-4-yl]-piperazin-1-yl}-3-(4-fluoro-3,5-dimethyl-phenyl)-propan-1-one], the pIC50 was greater than 5.00.

For the molecule `O=C(OCc1ccc(C(F)(F)F)cc1)N1CCC(N2CCC(c3ccc4[nH]c(=O)oc4c3)=N2)CC1` [Compound 107, 4-[3-(2-Oxo-2,3-dihydro-benzooxazol-6-yl)-4,5-dihydro-pyrazol-1-yl]-piperidine-1-carboxylic acid 4-trifluoromethyl-benzyl ester], the negative-log IC50 (pIC50) is greater than 5.00.

In the case of `O=C(OCc1ccc(C(F)(F)F)cc1)N1CCC(n2ccc(-c3ccc4[nH]c(=O)oc4c3)n2)CC1` [Compound 108], the negative-log IC50 (pIC50) is greater than 5.00.

(Values after patent US9452997B2, “Piperidine and piperazine derivatives as autotaxin inhibitors” (Merck Patent GmbH, priority 2009, dated 2016).)
